Reference: publication PMC12136031 (Science Advances, 2025)
Read-outs that look alike come from different tables or passages of the source.

How the values were obtained:
in vitro = conditions: African green monkey
lysosomal pH = assay: Lysosomal pH (lysosensor yellow/blue) in OC43-infected BEAS-2B cells; type: cell-based, human; conditions: OC43 7 hours, 18 hours pretreatment, 100 nM
Vero E6 cells = conditions: read-out: Cytotoxicity CC50 Vero E6 MEM
[1] = system: SARS-CoV-2 (USA-WA-1/2020); type: in vivo, K18-hACE2 mice; conditions: for Survival (mice survived): BID thereafter, until day 10

Cl.c1ccc2c(Nc3ccc4[nH]ccc4c3)nc(-c3ccncc3)nc2c1 [BC18630, N-1H-indol-5-yl-2-pyridin-4-ylquinazolin-4-amine hydrochloride]
CC50 (in vitro): > 10 µM | Virally induced lysosomal alkalization (lysosomal pH) (lysosomal pH): inhibited this virally induced alkalization | CC50 (Vero E6 cells): > 10 µM | Viral titer in mouse lungs ([1]; 3 dpi, both treatments (pre and post), 40 mg/kg oral BID): substantialy decreased | TFEB IHC signal in the airways ([1]; mouse lung, 6 dpi): increase | Survival (mice survived) ([1]; post-treat: 40 mg/kg 12 hours after infection): 2/5 | Survival (mice survived) ([1]; pre-treat: 40 mg/kg 24 hours before infection): 3/5
